Data from patent publication US9468680B2, “Differential effects of drugs on transport in a multi-layer 3D spheroid model” (Brown University, priority 2011, dated 2016).
Counter-ions that a name gives are not always drawn.

Experiments:
[1] = biological target: T1, Pgp (Homo sapiens, UniProt P08183); experiment: cell-based
Protocol: (§1) KGN cells, a human granulosa cell line, were grown in DMEM^29. OVCAR-3 and SK-OV-3 cells were grown in Roswell Park Memorial Institute medium (RPMI; Invitrogen). Both media were supplemented with 10% fetal bovine serum (FBS) (Thermo Fisher Scientific, Waltham, Mass.) and 1% penicillin/streptomycin and grown at 37° C. and 10% CO2. Cells were trypsinized using 0.05% trypsin and resuspended to the desired cell concentration. Spheroids that were pre-stained were formed from cells incubated with 5 μM CellTracker™ Red CMPTX, CellTracker™ Green CMFDA, or CellTracker™ Blue CMAC (Invitrogen) in serum-free DMEM for 1 hour prior to trypsinization. 75 μl of the cell suspension was pipetted into the seeding chamber of each gel. Cells were allowed to settle for 20 minutes and 4 mL of medium was added. Cells self-assembled for 24 hours to form spheroids before experimentation.
(§2) Quantitative image analysis was performed using a custom MATLAB (Mathworks, Natick, Mass.) program. Briefly, fifty evenly spaced radii were drawn across each spheroid and fluorescence at each pixel was averaged. […] Total spheroid fluorescence was determined by the integration of the fluorescent profiles (Equation 2). To compare data across experiments, we normalized the spheroids to the fluorescence per depth of single cells at the final time point.
(§3) To measure uptake of calcein-AM and transport of calcein, medium was removed from the hydrogels containing self-assembled KGN spheroids (24 hours), and replaced with serum-free DMEM containing 1 μM calcein-AM (Invitrogen). […] Images were taken once per hour for 11 hours, at 37° C. and 10% CO2.
(§4) Hydrogels were equilibrated with a drug-containing medium overnight at 37° C. and 10% CO2, and spheroids were self-assembled for 24 hours in their respective drug concentration. […] A working solution of carbenoxolone (Sigma) was prepared by diluting appropriate volumes of a 10 mM stock solution into serum-free medium. Spheroids were assembled for 24 hours and then pretreated with carbenoxolone for 5 hours prior to adding calcein-AM for the uptake assay. Medium containing drug and calcein-AM were used for the uptake assay.

[2] = test system: KGN spheroids; experiment: loss of calcein from calcein-loaded KGN spheroids; assay type: cell-based, human; settings: after 135 minutes calcein-AM loading
Protocol: To measure uptake of calcein-AM and transport of calcein, medium was removed from the hydrogels containing self-assembled KGN spheroids (24 hours), and replaced with serum-free DMEM containing 1 μM calcein-AM (Invitrogen). Fluorescent imaging of calcein began immediately and images were taken at regular intervals over 135 minutes at 37° C. and 10% CO2. To measure loss or loss of calcein, hydrogels containing KGN spheroids that had been incubated with calcein-AM for 135 minutes, thus loading the spheroids with calcein, were rinsed with DMEM and incubated in DMEM without calcein-AM. Images were taken once per hour for 11 hours, at 37° C. and 10% CO2.

[3] = biological target: T2, gap junctions (Homo sapiens, UniProt P17302); experiment: transport of calcein from outer shell to core of KGN spheroids (compartmentalization analysis); assay type: cell-based
T2 construct: endogenous in cells; host or cells: KGN human granulosa cell line, self-assembled 3D spheroids
Protocol: as §1, §2, §3, §4
To deconvolve this fluorescent signal into an average 3D radial profile, the spheroid was estimated as a series of concentric spheres (multi-layers). Each layer (shell) was 14 μm in width and contained a homogenous concentration of fluorescent calcein (FIGS. 3C and D). The total fluorescence f(i) at X, layer is sum of the fluorescence contribution from all shells at Xi. Mathematically, the total fluorescence can be written as
[formula] Here, fnorm(j) is the fluorescence/height in the i^th shell and h(i, j) is the height at point (Xi, Yj). Note h(i, i)=0 lies at the centerline of the spheroid. […] Equation (4) results in the following iterative formula: […]
The inner core was taken as about≧14 μm from the center in the smallest dimension to ensure the core contained whole cells.

[4] = biological target: T1, Pgp; settings: 2D, calcein-AM assay, concentrations ranging from 1-100 μM; cited from earlier work
[5] = 1 μM calcein-AM, 75 minutes, n=15
[6] = 5 μM drug, 1 μM calcein-AM, 110 minutes
[7] = 5 μM drug, normalized data, 110 minutes

T2 sequence (P17302 2-382 limits assumed): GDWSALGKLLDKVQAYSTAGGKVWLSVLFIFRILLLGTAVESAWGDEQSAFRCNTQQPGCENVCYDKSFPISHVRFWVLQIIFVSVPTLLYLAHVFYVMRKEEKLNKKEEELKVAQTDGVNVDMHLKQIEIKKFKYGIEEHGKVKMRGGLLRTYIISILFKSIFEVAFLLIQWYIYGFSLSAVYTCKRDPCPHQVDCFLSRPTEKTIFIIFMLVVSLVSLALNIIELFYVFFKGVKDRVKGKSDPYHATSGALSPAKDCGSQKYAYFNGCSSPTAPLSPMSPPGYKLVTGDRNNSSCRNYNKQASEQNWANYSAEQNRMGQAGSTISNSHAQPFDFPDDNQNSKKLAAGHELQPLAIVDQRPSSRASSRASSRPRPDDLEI
T1 sequence (P08183 whole entry): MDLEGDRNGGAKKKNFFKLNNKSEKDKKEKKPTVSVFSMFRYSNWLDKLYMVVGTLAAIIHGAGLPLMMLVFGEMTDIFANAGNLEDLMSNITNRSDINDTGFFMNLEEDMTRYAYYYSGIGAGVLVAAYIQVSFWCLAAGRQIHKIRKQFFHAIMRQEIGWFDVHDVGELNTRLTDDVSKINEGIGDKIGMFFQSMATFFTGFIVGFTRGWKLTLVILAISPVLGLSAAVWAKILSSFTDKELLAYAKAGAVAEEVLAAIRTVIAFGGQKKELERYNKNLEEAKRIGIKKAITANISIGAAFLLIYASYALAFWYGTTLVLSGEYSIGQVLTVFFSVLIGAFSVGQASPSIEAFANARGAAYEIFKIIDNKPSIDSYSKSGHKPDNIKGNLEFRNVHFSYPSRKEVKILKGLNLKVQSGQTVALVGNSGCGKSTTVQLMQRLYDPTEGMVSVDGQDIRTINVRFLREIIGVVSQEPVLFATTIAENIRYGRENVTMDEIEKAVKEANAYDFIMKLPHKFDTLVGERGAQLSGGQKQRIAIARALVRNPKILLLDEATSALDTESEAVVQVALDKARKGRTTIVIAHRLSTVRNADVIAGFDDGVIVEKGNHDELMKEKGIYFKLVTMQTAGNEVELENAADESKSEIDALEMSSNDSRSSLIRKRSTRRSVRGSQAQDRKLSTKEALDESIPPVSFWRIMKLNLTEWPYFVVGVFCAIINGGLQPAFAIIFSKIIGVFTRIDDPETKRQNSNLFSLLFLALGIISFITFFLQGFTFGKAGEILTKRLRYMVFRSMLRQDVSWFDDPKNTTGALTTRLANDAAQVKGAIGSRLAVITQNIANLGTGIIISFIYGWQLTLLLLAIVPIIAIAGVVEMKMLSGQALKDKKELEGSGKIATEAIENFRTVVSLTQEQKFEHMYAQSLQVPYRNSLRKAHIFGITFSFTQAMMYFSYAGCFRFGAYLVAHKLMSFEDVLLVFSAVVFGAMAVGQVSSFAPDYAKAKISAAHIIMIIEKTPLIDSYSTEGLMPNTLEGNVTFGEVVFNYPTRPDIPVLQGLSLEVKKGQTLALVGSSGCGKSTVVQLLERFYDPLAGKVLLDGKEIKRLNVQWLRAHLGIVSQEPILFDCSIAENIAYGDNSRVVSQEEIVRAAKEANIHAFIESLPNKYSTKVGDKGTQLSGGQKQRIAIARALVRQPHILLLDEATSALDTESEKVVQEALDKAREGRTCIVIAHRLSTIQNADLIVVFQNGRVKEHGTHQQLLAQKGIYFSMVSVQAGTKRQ

IC50 [1] [µM] | calcein in the outer shell, fold higher than controls ([1]; human, 135 min, 100 μM) [fold] | percentage of calcein in the core compared to controls [3, 5] | percentage of calcein in the outer shell compared to controls [3, 5] | IC50 ([3]; 1 μM calcein-AM, 75 minutes, read-out: half-maximal response, inhibition of gap junctions (fraction of calcein compartmentalized to outer shell)) [µM] | calcein in the core, fold less than controls ([3]; CBX 100 μM, 1 μM calcein-AM, 135 minutes) [fold] | percentage of calcein in the core ([3]; CBX 100 μM, 135 minutes, n=18, untreated 15±3%) [%] | percentage of calcein in the outer shell ([3]; CBX 100 μM, 135 minutes, n=18, untreated 27±3%) [%] | SMILES | effect on loss of total spheroid calcein [2] | initial rate of calcein loss from the outer shell ([2]; drug-free medium, control 17±3% per hour, p<0.05) [% per hour] | calcein in the outer shell compared to untreated controls [1, 6] | total concentration of calcein in the spheroids compared to untreated controls [1, 6] | percent maximum inhibition [4] [%] | calcein concentration in the core of the spheroid compared to untreated [3, 6] | percentage of calcein in the core compared to control [3, 7] | percentage of calcein in the outer most shell compared to control [3, 7]
81 | 3 | reduced | increased | 9.4 | 8 | 0.5±2 | 52±4 | CC1(C)[C@@H](OC(=O)CCC(=O)O)CC[C@]2(C)[C@H]3C(=O)C=C4[C@@H]5C[C@@](C)(C(=O)O)CC[C@]5(C)CC[C@@]4(C)[C@]3(C)CC[C@@H]12 [carbenoxolone] | no effect | 13±1 | – | – | – | – | – | –
– | – | – | – | – | – | – | – | CN(C)C(=O)C(CCN1CCC(O)(c2ccc(Cl)cc2)CC1)(c1ccccc1)c1ccccc1 [loperamide, loperamide hydrochloride] | – | – | significantly increased | significantly increased | 76.3 | did not increase | decreased | increased
